Measured values published in the supplement of paper PMC10307832.

Experiments:
Assay in all cases: relative viability (nuclei count vs DMSO), 5 days (fraction); higher = more cells survive
Elesclomol = compound: CN(NC(=O)CC(=O)NN(C)C(=S)c1ccccc1)C(=S)c1ccccc1 [Elesclomol]
Procedure, shortened: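 Cells of lung cancer lines were placed in 1536-well plates and kept overnight at 37 °C. Pinning then delivered five library-drug doses (not always all listed), spaced by √10, onto plates anchored with vehicle, and the cells were left 5 days without changing medium. One step fixed, permeabilised and stained them with Hoechst, and MetaXpress counted nuclei in 4× images. Viability, as a median over plates, is treated-well nuclei divided by vehicle-well nuclei, with acceptance only at control CV below 25% and at least one doubling.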

Elesclomol + Vorinostat = compound: CN(NC(=O)CC(=O)NN(C)C(=S)c1ccccc1)C(=S)c1ccccc1 [Elesclomol] + O=C(CCCCCCC(=O)Nc1ccccc1)NO [Vorinostat] (partner 1 µM)
Procedure, shortened: (§1)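 Cells from lung cancer lines were seeded into 1536-well plates and, one day later, dosed by pin tool. Treatments were either a single drug or a fixed dose of an anchor drug with five library-drug doses (not always all listed) in √10 steps. After 5 days, nuclei were stained in a one-step fixation (final 0.05% Triton X-100, 1% formaldehyde, 1 ug/ml Hoechst) and counted on 4× images, and relative viability is the treated-to-vehicle nuclei ratio, as the median of duplicate plates.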

Elesclomol + Pemetrexed = compound: CN(NC(=O)CC(=O)NN(C)C(=S)c1ccccc1)C(=S)c1ccccc1 [Elesclomol] + Nc1nc2[nH]cc(CCc3ccc(C(=O)N[C@@H](CCC(=O)O)C(=O)O)cc3)c2c(=O)[nH]1 [Pemetrexed] (partner 0.2 µM)
Procedure, shortened: as §1

Elesclomol + Olaparib = compound: CN(NC(=O)CC(=O)NN(C)C(=S)c1ccccc1)C(=S)c1ccccc1 [Elesclomol] + O=C(c1cc(Cc2n[nH]c(=O)c3ccccc23)ccc1F)N1CCN(C(=O)C2CC2)CC1 [Olaparib] (partner 8 µM)
Procedure, shortened: as §1

Elesclomol + Tozasertib = compound: CN(NC(=O)CC(=O)NN(C)C(=S)c1ccccc1)C(=S)c1ccccc1 [Elesclomol] + Cc1cc(Nc2cc(N3CCN(C)CC3)nc(Sc3ccc(NC(=O)C4CC4)cc3)n2)n[nH]1 [Tozasertib] (partner 0.1 µM)
Procedure, shortened: as §1

Elesclomol + Decitabine = compound: CN(NC(=O)CC(=O)NN(C)C(=S)c1ccccc1)C(=S)c1ccccc1 [Elesclomol] + Nc1ncn([C@H]2C[C@H](O)[C@@H](CO)O2)c(=O)n1 [Decitabine] (partner 2 µM)
Procedure, shortened: as §1

Elesclomol + Trametinib = compound: CN(NC(=O)CC(=O)NN(C)C(=S)c1ccccc1)C(=S)c1ccccc1 [Elesclomol] + CC(=O)Nc1cccc(-n2c(=O)n(C3CC3)c(=O)c3c(Nc4ccc(I)cc4F)n(C)c(=O)c(C)c32)c1 [Trametinib] (partner 0.02 µM)
Procedure, shortened: as §1

Elesclomol + Palbociclib = compound: CN(NC(=O)CC(=O)NN(C)C(=S)c1ccccc1)C(=S)c1ccccc1 [Elesclomol] + CC(=O)c1c(C)c2cnc(Nc3ccc(N4CCNCC4)cn3)nc2n(C2CCCC2)c1=O [Palbociclib] (partner 0.5 µM)
Procedure, shortened: as §1

Elesclomol + AZD7762 = compound: CN(NC(=O)CC(=O)NN(C)C(=S)c1ccccc1)C(=S)c1ccccc1 [Elesclomol] + NC(=O)Nc1cc(-c2cccc(F)c2)sc1C(=O)N[C@H]1CCCNC1 [AZD7762] (partner 0.2 µM)
Procedure, shortened: as §1

Elesclomol + OSI-027 = compound: CN(NC(=O)CC(=O)NN(C)C(=S)c1ccccc1)C(=S)c1ccccc1 [Elesclomol] + COc1cccc2cc(-c3nc([C@H]4CC[C@H](C(=O)O)CC4)n4ncnc(N)c34)[nH]c12 [OSI-027] (partner 0.5 µM)
Procedure, shortened: as §1

Elesclomol + Bortezomib = compound: CN(NC(=O)CC(=O)NN(C)C(=S)c1ccccc1)C(=S)c1ccccc1 [Elesclomol] + CC(C)C[C@H](NC(=O)[C@H](Cc1ccccc1)NC(=O)c1cnccn1)B(O)O [Bortezomib] (partner 0.002 µM)
Procedure, shortened: as §1

Elesclomol + Pictilisib = compound: CN(NC(=O)CC(=O)NN(C)C(=S)c1ccccc1)C(=S)c1ccccc1 [Elesclomol] + CS(=O)(=O)N1CCN(Cc2cc3nc(-c4cccc5[nH]ncc45)nc(N4CCOCC4)c3s2)CC1 [Pictilisib] (partner 1 µM)
Procedure, shortened: as §1

Elesclomol + Navitoclax = compound: CN(NC(=O)CC(=O)NN(C)C(=S)c1ccccc1)C(=S)c1ccccc1 [Elesclomol] + CC1(C)CCC(c2ccc(Cl)cc2)=C(CN2CCN(c3ccc(C(=O)NS(=O)(=O)c4ccc(N[C@H](CCN5CCOCC5)CSc5ccccc5)c(S(=O)(=O)C(F)(F)F)c4)cc3)CC2)C1 [Navitoclax] (partner 0.5 µM)
Procedure, shortened: as §1

Elesclomol + Foretinib = compound: CN(NC(=O)CC(=O)NN(C)C(=S)c1ccccc1)C(=S)c1ccccc1 [Elesclomol] + COc1cc2c(Oc3ccc(NC(=O)C4(C(=O)Nc5ccc(F)cc5)CC4)cc3F)ccnc2cc1OCCCN1CCOCC1 [Foretinib] (partner 0.25 µM)
Procedure, shortened: as §1

Elesclomol + Lapatinib = compound: CN(NC(=O)CC(=O)NN(C)C(=S)c1ccccc1)C(=S)c1ccccc1 [Elesclomol] + CS(=O)(=O)CCNCc1ccc(-c2ccc3ncnc(Nc4ccc(OCc5cccc(F)c5)c(Cl)c4)c3c2)o1 [Lapatinib] (partner 2 µM)
Procedure, shortened: as §1

Elesclomol + Crizotinib = compound: CN(NC(=O)CC(=O)NN(C)C(=S)c1ccccc1)C(=S)c1ccccc1 [Elesclomol] + C[C@@H](Oc1cc(-c2cnn(C3CCNCC3)c2)cnc1N)c1c(Cl)ccc(F)c1Cl [Crizotinib] (partner 1 µM)
Procedure, shortened: as §1

Elesclomol + Linsitinib = compound: CN(NC(=O)CC(=O)NN(C)C(=S)c1ccccc1)C(=S)c1ccccc1 [Elesclomol] + C[C@]1(O)C[C@@H](c2nc(-c3ccc4ccc(-c5ccccc5)nc4c3)c3c(N)nccn32)C1 [Linsitinib] (partner 1 µM)
Procedure, shortened: as §1

Elesclomol + Alpelisib = compound: CN(NC(=O)CC(=O)NN(C)C(=S)c1ccccc1)C(=S)c1ccccc1 [Elesclomol] + Cc1nc(NC(=O)N2CCC[C@H]2C(N)=O)sc1-c1ccnc(C(C)(C)C(F)(F)F)c1 [Alpelisib] (partner 2 µM)
Procedure, shortened: as §1

In the case of NCI-H1648, the relative viability (Elesclomol; 0.003162 µM) is reported as 0.606, the relative viability (Elesclomol; 0.01 µM) is reported as 0.725 and the relative viability (Elesclomol; 0.03162 µM) is reported as 0.827. The relative viability (Elesclomol; 0.1 µM) was 0.76, the relative viability (Elesclomol + Vorinostat; first compound 0.003162 µM) was 0.338 and the relative viability (Elesclomol + Vorinostat; first compound 0.01 µM) was 0.416. For the same cell line, the relative viability (Elesclomol + Vorinostat; first compound 0.03162 µM) was 0.385, the relative viability (Elesclomol + Vorinostat; first compound 0.1 µM) was 0.313 and the relative viability (Elesclomol + Pemetrexed; first compound 0.003162 µM) was 0.7. For the same cell line, the relative viability (Elesclomol + Pemetrexed; first compound 0.01 µM) was 0.599, the relative viability (Elesclomol + Pemetrexed; first compound 0.03162 µM) was 0.752 and the relative viability (Elesclomol + Pemetrexed; first compound 0.1 µM) was 0.673. The relative viability (Elesclomol + Olaparib; first compound 0.003162 µM) was 0.675, the relative viability (Elesclomol + Olaparib; first compound 0.01 µM) was 0.753 and the relative viability (Elesclomol + Olaparib; first compound 0.03162 µM) was 0.835. For the same cell line, the relative viability (Elesclomol + Olaparib; first compound 0.1 µM) was 0.796, the relative viability (Elesclomol + Tozasertib; first compound 0.003162 µM) was 0.379 and the relative viability (Elesclomol + Tozasertib; first compound 0.01 µM) was 0.409. For the same cell line, the relative viability (Elesclomol + Tozasertib; first compound 0.03162 µM) was 0.506, the relative viability (Elesclomol + Tozasertib; first compound 0.1 µM) was 0.54 and the relative viability (Elesclomol + Decitabine; first compound 0.003162 µM) was 0.551. For the same cell line, the relative viability (Elesclomol + Decitabine; first compound 0.01 µM) was 0.469, the relative viability (Elesclomol + Decitabine; first compound 0.03162 µM) was 0.509 and the relative viability (Elesclomol + Decitabine; first compound 0.1 µM) was 0.453. The relative viability (Elesclomol + Trametinib; first compound 0.003162 µM) was 0.555, the relative viability (Elesclomol + Trametinib; first compound 0.01 µM) was 0.415 and the relative viability (Elesclomol + Trametinib; first compound 0.03162 µM) was 0.46. For the same cell line, the relative viability (Elesclomol + Trametinib; first compound 0.1 µM) was 0.39, the relative viability (Elesclomol + Palbociclib; first compound 0.003162 µM) was 0.301 and the relative viability (Elesclomol + Palbociclib; first compound 0.01 µM) was 0.285. It also gave a relative viability (Elesclomol + Palbociclib; first compound 0.03162 µM) of 0.266, a relative viability (Elesclomol + Palbociclib; first compound 0.1 µM) of 0.253 and a relative viability (Elesclomol + AZD7762; first compound 0.003162 µM) of 0.581. It also gave a relative viability (Elesclomol + AZD7762; first compound 0.01 µM) of 0.686, a relative viability (Elesclomol + AZD7762; first compound 0.03162 µM) of 0.61 and a relative viability (Elesclomol + AZD7762; first compound 0.1 µM) of 0.622. It also gave a relative viability (Elesclomol + OSI-027; first compound 0.003162 µM) of 0.263, a relative viability (Elesclomol + OSI-027; first compound 0.01 µM) of 0.276 and a relative viability (Elesclomol + OSI-027; first compound 0.03162 µM) of 0.224. For the same cell line, the relative viability (Elesclomol + OSI-027; first compound 0.1 µM) was 0.295.

Cell Line Calu-6 has a relative viability (Elesclomol; 0.003162 µM) of 0.768, a relative viability (Elesclomol; 0.01 µM) of 0.317 and a relative viability (Elesclomol; 0.03162 µM) of 0.304. It also gave a relative viability (Elesclomol; 0.1 µM) of 0.138, a relative viability (Elesclomol + Bortezomib; first compound 0.003162 µM) of 0.787 and a relative viability (Elesclomol + Bortezomib; first compound 0.01 µM) of 0.322. For the same cell line, the relative viability (Elesclomol + Bortezomib; first compound 0.03162 µM) was 0.16, the relative viability (Elesclomol + Bortezomib; first compound 0.1 µM) was 0.155 and the relative viability (Elesclomol + Pictilisib; first compound 0.003162 µM) was 0.573. It also gave a relative viability (Elesclomol + Pictilisib; first compound 0.01 µM) of 0.239, a relative viability (Elesclomol + Pictilisib; first compound 0.03162 µM) of 0.164 and a relative viability (Elesclomol + Pictilisib; first compound 0.1 µM) of 0.111. The relative viability (Elesclomol + Navitoclax; first compound 0.003162 µM) was 0.476, the relative viability (Elesclomol + Navitoclax; first compound 0.01 µM) was 0.166 and the relative viability (Elesclomol + Navitoclax; first compound 0.03162 µM) was 0.122. The relative viability (Elesclomol + Navitoclax; first compound 0.1 µM) was 0.0729, the relative viability (Elesclomol + Foretinib; first compound 0.003162 µM) was 0.511 and the relative viability (Elesclomol + Foretinib; first compound 0.01 µM) was 0.15. It also gave a relative viability (Elesclomol + Foretinib; first compound 0.03162 µM) of 0.0883, a relative viability (Elesclomol + Foretinib; first compound 0.1 µM) of 0.0356 and a relative viability (Elesclomol + Olaparib; first compound 0.003162 µM) of 0.477. The relative viability (Elesclomol + Olaparib; first compound 0.01 µM) was 0.219, the relative viability (Elesclomol + Olaparib; first compound 0.03162 µM) was 0.177 and the relative viability (Elesclomol + Olaparib; first compound 0.1 µM) was 0.121. It also gave a relative viability (Elesclomol + Lapatinib; first compound 0.003162 µM) of 0.602, a relative viability (Elesclomol + Lapatinib; first compound 0.01 µM) of 0.276 and a relative viability (Elesclomol + Lapatinib; first compound 0.03162 µM) of 0.3. It also gave a relative viability (Elesclomol + Lapatinib; first compound 0.1 µM) of 0.12, a relative viability (Elesclomol + Crizotinib; first compound 0.003162 µM) of 0.501 and a relative viability (Elesclomol + Crizotinib; first compound 0.01 µM) of 0.222. It also gave a relative viability (Elesclomol + Crizotinib; first compound 0.03162 µM) of 0.247, a relative viability (Elesclomol + Crizotinib; first compound 0.1 µM) of 0.121 and a relative viability (Elesclomol + Linsitinib; first compound 0.003162 µM) of 0.737. It also gave a relative viability (Elesclomol + Linsitinib; first compound 0.01 µM) of 0.223, a relative viability (Elesclomol + Linsitinib; first compound 0.03162 µM) of 0.285 and a relative viability (Elesclomol + Linsitinib; first compound 0.1 µM) of 0.153. The relative viability (Elesclomol + Alpelisib; first compound 0.003162 µM) was 0.727, the relative viability (Elesclomol + Alpelisib; first compound 0.01 µM) was 0.243 and the relative viability (Elesclomol + Alpelisib; first compound 0.03162 µM) was 0.229. For the same cell line, the relative viability (Elesclomol + Alpelisib; first compound 0.1 µM) was 0.127.
